The source of these data is PMC6711809 (Bioorganic & medicinal chemistry letters, 2019).

Molecules are shown by their SMILES.

This assay addresses HIV-1 protease (Human immunodeficiency virus type 1 group M subtype B, UniProt P04585). Briefly: HIV-1 protease inhibitory activity. In kind it is biochemical. The note with it: for fold better inhibitory activity than 3i: compared with 3i.

On to `COc1ccc(S(=O)(=O)N(CC(C)C)C[C@@H](O)[C@H](Cc2ccccc2)Nc2c(N(C)[C@H]3CCOC3)c(=O)c2=O)cc1` [Inhibitor 3g], for which the “potency enhancement over compound 3e” value (compared with 3e) is recorded as 15 fold. In the case of `COCCOc1c(N[C@@H](Cc2ccccc2)[C@H](O)CN(CC(C)C)S(=O)(=O)c2ccc(OC)cc2)c(=O)c1=O` [Inhibitor 3b], the “loss of protease inhibitory activity relative to 3a” value (compared with 3a) was “over 4 fold”. In the case of `COc1ccc(S(=O)(=O)N(CC(C)C)C[C@@H](O)[C@H](Cc2ccccc2)Nc2c(N(C)[C@@H]3CCOC3)c(=O)c2=O)cc1` [Inhibitor 3h], under “compared with 3g”, the “fold more potent than 3g” value is listed as “over 775 fold”. With `COc1ccc(S(=O)(=O)N(CC(C)C)C[C@@H](O)[C@H](Cc2ccccc2)Nc2c(N(C)[C@H]3CO[C@H]4OCC[C@H]43)c(=O)c2=O)cc1` [Inhibitor 3k], the “fold better inhibitory activity than 3i” value was “over 10 fold”. Still for that read-out and setting: the figure for `COc1ccc(S(=O)(=O)N(CC(C)C)C[C@@H](O)[C@H](Cc2ccccc2)Nc2c(N[C@@H]3CO[C@@H]4OCC[C@@H]43)c(=O)c2=O)cc1` [Inhibitor 3j] is around 10 fold.
